Test results published in patent publication EP0278997A1, “Azapropazone rectal capsules” (SIEGFRIED AKTIENGESELLSCHAFT, priority 1987, dated 1988).
Values joined by “and” are separate entries in the source; they are usually repeats but may differ in a detail not shown here. Identical values can stand only once. Like-named read-outs stand apart in the source and are kept apart here.

Experiment: Bioavailability of the rectal capsule versus i.v. administration (plasma AUC 0-72) in test subjects
Assay type: in vivo
Details: for AUC at 72 h: human, plasma, iv, read-out: A U C 0 - 72

AUC at 72 h (geometric mean (geom.x) of 6 Probanden): 1060 µg·h/mL | AUC at 72 h (mean (x) of 6 Probanden): 1080 µg·h/mL
Compound: CCCC1C(=O)N2C(N(C)C)=Nc3ccc(C)cc3N2C1=O (stereo not drawn) [Azapropazon, 3-Dimethyl-amino-7-methyl-1,2-(n-propyimaionyi)-1,2-dihydro-1,2.4-benzotriazin]
A U C 0 - 72 (individual Proband, 4320 min): 926.46 mcg/ml.Std and 728.31 mcg/ml.Std and 1158.02 mcg/ml.Std and 964.71 mcg/ml.Std and 1466.56 mcg/ml.Std and 1252.36 mcg/ml.Std
